Twelve molecules from ChEMBL document CHEMBL1201862, “PubChem BioAssay data set” (2004) can be followed below.

Test systems include HT-29; HOP-62; SK-MEL-2; M14; HCT-116; MDA-MB-435; K562; Hs-578T; SF-539; A549; NCI-H460; EKVX; Malme-3M; RXF 393; UACC-62; SR; SK-OV-3; SN12C; CCRF-CEM.
Experiment in all cases: NCI-60 cell line screen, 48 h

Molecules are shown by their SMILES.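 Growth conditions: 96-well plates. Treatment: test compound, 48 hours, 5 concentrations. Analysis: linear interpolation between bracketing concentrations; unreached endpoints set to highest concentration. The concentration for 50% growth inhibition is given as GI50.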 Calls of active or inactive are those of the source. Rule as the data show it: active = GI50 up to about 1.1 µM and inactive = higher. Bounds are passed on as bounds.

For `COC(=O)[C@@H]1C2OC(C)(C)OC2CN1C(=O)OCc1ccccc1` (stereo partly drawn), the GI50 with HT-29, in the experiment on HOP-62, in the experiment on SK-MEL-2, in the experiment on M14, with HCT-116 and in the experiment on MDA-MB-435 was > 100 µM (inactive) in each case. In addition, the GI50 in the experiment on K562, in the experiment on Hs-578T, with SF-539, with A549, in the experiment with NCI-H460 and in the experiment with EKVX was > 100 µM (inactive) in each case. For the same molecule, the GI50 with Malme-3M, in the experiment on RXF 393, with UACC-62, with SR, in the experiment on SK-OV-3 and with SN12C was > 100 µM (inactive) in each case.
In the case of `COc1cc2c(cc1OCCCOc1cc3c(cc1OC)C(=O)N1CCC[C@H]1C(=O)N3)N=C[C@@H]1CCCN1C2=O`, the GI50 was 16.9 µM (inactive) in the experiment on HT-29; 34.2 µM (inactive) in the experiment with HOP-62; 12.6 µM (inactive) in the experiment with SK-MEL-2; 20.3 µM (inactive) with M14; 26.4 µM (inactive) in the experiment on HCT-116; 15.8 µM (inactive) in the experiment on MDA-MB-435. Besides, the GI50 is 3.77 µM (inactive) in the experiment with K562; 29 µM (inactive) in the experiment on Hs-578T; 22.1 µM (inactive) in the experiment on A549; 19.9 µM (inactive) with NCI-H460; 17 µM (inactive) in the experiment with EKVX; 10.9 µM (inactive) in the experiment on Malme-3M. The GI50 in the experiment on RXF 393 was 13.3 µM (inactive); with UACC-62, 6.62 µM (inactive); in the experiment on SR, 1.54 µM (inactive); with SN12C, 15.7 µM (inactive).
For the molecule `CCCCCCCCCN1CCC(=O)C(C(=O)OC)C1` (stereo not drawn), the GI50 in the experiment with HT-29 is 10.1 µM (inactive); in the experiment on HOP-62 it was 16.9 µM (inactive); in the experiment on M14, 15.4 µM (inactive); in the experiment on HCT-116, 13.9 µM (inactive); with MDA-MB-435, 14.7 µM (inactive); in the experiment with Hs-578T it was 17.1 µM (inactive). The GI50 was 18.2 µM (inactive) with SF-539; 16.6 µM (inactive) with A549; 17.6 µM (inactive) in the experiment on NCI-H460; 15.5 µM (inactive) in the experiment with EKVX; 10.1 µM (inactive) in the experiment with CCRF-CEM; 17.1 µM (inactive) in the experiment with RXF 393. In addition, the GI50 in the experiment on UACC-62 was 12.2 µM (inactive); with SR, 3.86 µM (inactive); in the experiment with SK-OV-3, 16.4 µM (inactive); in the experiment with SN12C, 16 µM (inactive).
As to `O=[N+]([O-])c1ccc2c3ccccc3[s+]([O-])c2c1` (stereo not drawn), the GI50 in the experiment with HT-29, with HOP-62, in the experiment with SK-MEL-2, in the experiment on M14, in the experiment on HCT-116 and in the experiment on MDA-MB-435 was > 100 µM (inactive) in each case. Further, the GI50 in the experiment on K562 was > 100 µM (inactive); in the experiment with Hs-578T, > 100 µM (inactive); with SF-539, > 100 µM (inactive); in the experiment with A549, > 100 µM (inactive); in the experiment on NCI-H460, > 100 µM (inactive); in the experiment on EKVX, 35.2 µM (inactive). The GI50 with Malme-3M is 30.5 µM (inactive); in the experiment on CCRF-CEM, > 100 µM (inactive); with UACC-62, > 100 µM (inactive); in the experiment with SR, > 100 µM (inactive); in the experiment on SK-OV-3 it was > 100 µM (inactive); in the experiment on SN12C, > 100 µM (inactive).
On to `Cc1cc2c(cc1C)C(=O)/C(=N/Nc1ccc(F)cc1)CCO2`, for which the GI50 was 24.6 µM (inactive) in the experiment on HT-29; > 100 µM (inactive) in the experiment with HOP-62; 20.4 µM (inactive) with SK-MEL-2; 87.5 µM (inactive) in the experiment with M14; > 100 µM (inactive) in the experiment with HCT-116; > 100 µM (inactive) in the experiment on MDA-MB-435. Moreover, the GI50 with K562, with Hs-578T, in the experiment on SF-539, in the experiment on A549, in the experiment on NCI-H460 and in the experiment with EKVX was > 100 µM (inactive) each time. In addition, the GI50 was 37 µM (inactive) in the experiment with Malme-3M; > 100 µM (inactive) in the experiment on CCRF-CEM; > 100 µM (inactive) in the experiment with UACC-62; > 100 µM (inactive) in the experiment with SR; > 100 µM (inactive) with SK-OV-3; > 100 µM (inactive) in the experiment with SN12C.
Take `CNC(=O)OC(C)CN1c2ccccc2Sc2ccccc21` (stereo not drawn): the GI50 is 80 µM (inactive) in the experiment on HT-29; > 100 µM (inactive) in the experiment on HOP-62; 64.9 µM (inactive) with M14; 57.5 µM (inactive) with HCT-116; 80.2 µM (inactive) in the experiment on MDA-MB-435; 63.7 µM (inactive) in the experiment on K562. The GI50 was > 100 µM (inactive) with Hs-578T; 64.3 µM (inactive) in the experiment with SF-539; 86.3 µM (inactive) in the experiment on A549; 57.3 µM (inactive) with NCI-H460; 51.4 µM (inactive) in the experiment with EKVX; > 100 µM (inactive) with Malme-3M. Further, the GI50 was > 100 µM (inactive) in the experiment with CCRF-CEM; 36.2 µM (inactive) in the experiment on RXF 393; > 100 µM (inactive) with UACC-62; 86.3 µM (inactive) in the experiment on SR; > 100 µM (inactive) in the experiment with SK-OV-3; > 100 µM (inactive) in the experiment on SN12C.
In the case of `COc1ccc(CNc2nc(NCc3ccc(OC)cc3)nc(N3CCOCC3)n2)cc1`, the GI50 was 2.79 µM (inactive) in the experiment on HT-29; 7.11 µM (inactive) with HOP-62; > 100 µM (inactive) in the experiment on SK-MEL-2; 6.35 µM (inactive) with M14; 4.49 µM (inactive) with HCT-116; 2.02 µM (inactive) with MDA-MB-435. Moreover, the GI50 with K562 was 4.55 µM (inactive); with Hs-578T, 4.23 µM (inactive); in the experiment with SF-539, 4.27 µM (inactive); in the experiment on A549, 7.13 µM (inactive); with NCI-H460, 4.23 µM (inactive); in the experiment on EKVX, 37.4 µM (inactive). For the same molecule, the GI50 was 1.03 µM (active) in the experiment on Malme-3M; > 100 µM (inactive) in the experiment with RXF 393; 3.58 µM (inactive) in the experiment on UACC-62; 2.79 µM (inactive) in the experiment with SR; 8.83 µM (inactive) in the experiment on SK-OV-3; 5.37 µM (inactive) with SN12C.
Take `O=[N+]([O-])c1ccc([I+]c2ccccc2)cc1`: the GI50 in the experiment on HT-29 is 2.97 µM (inactive); with HOP-62, 11.6 µM (inactive); in the experiment on M14, 4.29 µM (inactive); in the experiment on HCT-116, 3.77 µM (inactive); in the experiment on MDA-MB-435, 8.2 µM (inactive); in the experiment with K562, 4.19 µM (inactive). Moreover, the GI50 in the experiment with Hs-578T is 3.85 µM (inactive); in the experiment on SF-539, 7.11 µM (inactive); in the experiment on A549, 6.64 µM (inactive); in the experiment with NCI-H460, 5.52 µM (inactive); in the experiment with EKVX it was 15.7 µM (inactive); in the experiment on Malme-3M, 4.78 µM (inactive). Also, the GI50 is 2.49 µM (inactive) with CCRF-CEM; 3.54 µM (inactive) in the experiment on RXF 393; 2.96 µM (inactive) in the experiment with UACC-62; 2.53 µM (inactive) in the experiment with SR; 2.07 µM (inactive) with SK-OV-3; 1.61 µM (inactive) in the experiment on SN12C.
Consider `C/C(=N\Nc1ccc([N+](=O)[O-])cc1[N+](=O)[O-])c1sc(-n2nc(-c3ccccc3)cc2-c2ccccc2)nc1C`, for which the GI50 in the experiment with HT-29 is 17 µM (inactive); with HOP-62, 70.3 µM (inactive); in the experiment on M14, 56.4 µM (inactive); with HCT-116 it was 29.4 µM (inactive); in the experiment on MDA-MB-435 it was 33 µM (inactive); in the experiment with Hs-578T, 78.9 µM (inactive). The GI50 was 46.8 µM (inactive) with SF-539; 30.8 µM (inactive) with NCI-H460; 26.5 µM (inactive) in the experiment with EKVX; 76.7 µM (inactive) in the experiment with Malme-3M; 19.5 µM (inactive) with CCRF-CEM; 53.6 µM (inactive) in the experiment with UACC-62. In addition, the GI50 in the experiment on SR was 18.3 µM (inactive); with SK-OV-3 it was 24.5 µM (inactive); in the experiment with SN12C, 50.1 µM (inactive).
Turning to `O=C1NC(=S)N/C1=C\c1ccc(Sc2ccccc2C(=O)O)s1`, the GI50 with HT-29 is > 100 µM (inactive); in the experiment with HOP-62 it was > 100 µM (inactive); in the experiment on SK-MEL-2 it was > 100 µM (inactive); in the experiment with HCT-116 it was > 100 µM (inactive); in the experiment with MDA-MB-435, > 100 µM (inactive); with K562, 93.5 µM (inactive). The GI50 in the experiment on Hs-578T is > 100 µM (inactive); with NCI-H460, > 100 µM (inactive); with EKVX, > 100 µM (inactive); in the experiment on Malme-3M, > 100 µM (inactive); in the experiment with RXF 393 it was > 100 µM (inactive); with UACC-62, 85.3 µM (inactive). In addition, the GI50 in the experiment on SR and in the experiment with SN12C was > 100 µM (inactive) throughout.
For `COc1cc(C2SCC(=O)N2c2ccc(-n3c(-c4ccccc4)nc4ccccc4c3=O)cc2)cc(OC)c1OC` (stereo not drawn), the GI50 in the experiment on HT-29, with HOP-62, in the experiment on SK-MEL-2, in the experiment on HCT-116, with MDA-MB-435 and in the experiment on K562 was > 100 µM (inactive) in each case. Moreover, the GI50 with Hs-578T was 20.1 µM (inactive); in the experiment on SF-539, > 100 µM (inactive); with A549, > 100 µM (inactive); with NCI-H460, > 100 µM (inactive); in the experiment on EKVX it was > 100 µM (inactive); in the experiment with CCRF-CEM, 69.7 µM (inactive). Also, the GI50 is 41.2 µM (inactive) in the experiment on UACC-62, 45.4 µM (inactive) in the experiment with SR, 97.1 µM (inactive) in the experiment on SK-OV-3 and > 100 µM (inactive) in the experiment with SN12C.
With `N#CN1C2CCC1CC(=O)C2`, the GI50 in the experiment on HT-29, in the experiment on HOP-62, in the experiment on SK-MEL-2, in the experiment on M14, with HCT-116 and with MDA-MB-435 was > 100 µM (inactive) in each case. For the same molecule, the GI50 in the experiment on K562, in the experiment with Hs-578T, in the experiment with SF-539, in the experiment on A549, in the experiment with NCI-H460 and in the experiment with EKVX was > 100 µM (inactive) each time. Also, the GI50 in the experiment on Malme-3M, in the experiment with CCRF-CEM, with UACC-62, in the experiment on SR, with SK-OV-3 and in the experiment on SN12C was > 100 µM (inactive) each time.
